Measurements published in patent publication US12036228B2, “Treatment of seizure disorders” (Shackelford Pharma Inc., priority 2022, dated 2024).
Several values for one entry are separate records, joined by “and”; a condition that tells them apart may be missing. Identical values can stand only once. Like-named read-outs stand apart in the source and are kept apart here.

Columns and labels:
[1] = system: male CD-1 mice, 6 Hz (22 mA) corneal stimulus psychomotor seizure; assay: Mouse 6 Hz seizure (22 mA) test; assay type: in vivo; conditions: for % Seizure, group / % Seizure / F. Clonus / Lat H. Movement / Straub T. / Stun / Total (seizure score) / Total (seizure score), group mean / ED50: 30 min before test; for % Seizure: individual animals (0/1); for F. Clonus / Lat H. Movement / Straub T. / Stun / Total (seizure score): individual animals; for ED50: Mus musculus, IP
Procedure: This study assessed the anti-epileptic effects of low doses of dronabinol in the mouse 6 Hz seizure (22 mA) test at 4 dose levels. Sixty male CD-1 mice were randomly allocated to 1 of 7 treatment groups outlined in Table 1 below. The mice were purchased from Charles River Laboratories (St. Constant, Quebec, Canada). On the day of the experiment, general health observations and body weight measurements were performed prior to dosing. Thirty (30) minutes after administration of assigned treatments in Table 1, animals underwent a neurological assessment followed immediately by 6 Hz testing. Descriptions of these procedures are provided below.
Dronabinol and sodium valproate were dissolved in their respective vehicles on the day of dosing. Treatments were intraperitoneally administered to the lower right quadrant of the abdomen according to standard operating procedures. Treatment group summaries are included in Table 1.
On the scheduled test day, subjects received a dose of their assigned treatment 30 minutes before the electrical stimulus. Following neurological assessments, animals then received an electrical stimulus (6 Hz, 0.2 millisecond pulse width, 3 second duration, 22 mA) via corneal electrodes moistened with saline (ECT unit 57800; Ugo Basile). In approximately 50% of control animals, these stimulus parameters should elicit a psychomotor seizure within 30 seconds of stimulus delivery, defined as the expression of at least one of the following behaviours: stun/immobility, forelimb clonus, straub tail, or lateral head movement. Protection was defined as complete absence of the following: stun/immobility, forelimb clonus, straub tail and/or lateral head movement, within 30 seconds of stimulus delivery. A seizure score was assigned to each animal based on the number of these behaviours expressed by the animal after stimulus application. Once the animal either entered into a seizure, or 30 seconds elapsed, the endpoint was reached, and the animal was immediately euthanized.
All statistical analyses were performed using GraphPad Prism v.7.03. Analysis of variance (ANOVA) was completed for total seizure score data with the independent grouping variable of treatment (i.e., test article dose and control). In the event of a significant main effect, post-hoc Fisher's least significant difference analysis was conducted to compare vehicle with drug treatment.

male CD-1 mice = assay: Neurological assessment (score 0-3) immediately prior to seizure test; assay type: in vivo, mouse; set-up: key to Neurological Score: 0: Normal; 1: Modest decrease in spontaneous activity; 2: Marked decrease in spontaneous activity; 3: Loss of righting reflex; conditions: for Neurological Score: 30 min after dosing, individual animals
Procedure: Immediately prior to each seizure test, a brief neurological assessment was performed.

[2] = system: GTC seizures in human patient; assay: Example 2 human patient, Dravet syndrome; assay type: in vivo
Procedure: A patient first started having seizures and was subsequently diagnosed with Dravet syndrome. Initially, they were having clusters of 2 GTC seizures a day for 2 days occurring about every 2 weeks. Keppra was ineffective as were other combinations of anti-epileptic drugs. Several different combinations were tried and by the time they were first seen for evaluation for cannabinoid treatment on Aug. 7, 2014, they were taking Depakote 125 mg BID, Clonazepam 0.5 mg TID, and Versed/Diastat as needed for rescue but was still having clusters of GTC seizures every 2 weeks. The patient had started a CBD product on Jul. 3, 2014 (product analysis: 11.2 mg CBD/gm with 0.38 mg THC/gm at a dose of 0.7 mL TID (unknown concentration per mL), but seizures still were occurring irregularly—primarily GTC occurring in clusters of 1-2 per day every two weeks, rare atonic, and occasional eye-flutters.

[3] = system: GTC seizures in human patient; assay: Example 7 human patient, intractable GTC seizures; assay type: in vivo
Text: A patient was first diagnosed with intractable GTC seizures without status epilepticus in 2001.
The patient first presented for cannabinoid treatment on May 24, 2013. They were then a PhD student in economics. The patient's medical history is significant for having a car accident with a concussion and “scarring”. They developed GTC seizures occurring 3 times per month. […] In 2008, they started using recreational cannabis occasionally, but not regularly.

[4] = system: seizures in human patient; assay: Example 3 human patient, GTC and complex partial seizures; assay type: in vivo; conditions: including ataxia; discontinued after 6 months
Text: A patient first started having GTC and complex partial (CP) seizures. […] The patient was referred for evaluation for initiation of cannabinoid/THC treatment in March 2014.

## CCCC(CCC)C(=O)[O-].[Na+] [Sodium Valproate, Sodium valproate]
[1]; 600 mg/kg IP, N = 4
  % Seizure, group: 0.0%
  % Seizure: 0
  F. Clonus: 0
  Lat H. Movement: 0
  Straub T.: 0
  Stun: 0
  Total (seizure score): 0
  Total (seizure score), group mean: 0.0
[1]; p<0.01
  seizure scores (mean±SEM) vs vehicle, post-hoc analysis: reduction in seizure scores
Male CD-1 mice; 600 mg/kg IP
  motor impairment (neurological assessment): noticeable motor impairment on all animals
Male CD-1 mice; 600 mg/kg IP, N = 4
  Neurological Score: 2
  Neurological Score, group mean: 2.0

## CC(C)(C)C(O)/C=C/c1ccc2c(c1)OCO2 (stereo not drawn) [stiripentol]
[2]; stiripentol added to Depakote and Onfi (and THC 5 mg HS)
  myoclonic seizures: resolution of myoclonic seizures

## NC(=O)N1c2ccccc2CC(=O)c2ccccc21 [Trileptal]
[3]; Trileptal
  side effects: concerning side effects

## NC(=O)N1c2ccccc2C=Cc2ccccc21 [Tegretol]
[3]; Tegretol (dose unknown)
  side effects: concerning side effects

## CC[C@@H](C(N)=O)N1CCCC1=O [Keppra, levetiracetam]
[2]; Dravet patient, initial treatment
  effect on seizures: ineffective

## CCCC(CCC)C(=O)O [Depakote]
[4]
  side effects: debilitating side effects

## CCCCCc1cc(O)c2c(c1)OC(C)(C)[C@@H]1CCC(C)=C[C@@H]21 [Dronabinol]
[1]; 0.002 mg/kg IP, N = 8
  % Seizure, group: 62.5%
  % Seizure: 1 (5×) and 0 (3×)
  F. Clonus: 1 (4×) and 0 (4×)
  Lat H. Movement: 1 (3×) and 0 (5×)
  Straub T.: 0 (7×) and 1
  Stun: 1 (4×) and 0 (4×)
  Total (seizure score): 3 (2×) and 2 (3×) and 0 (3×)
  Total (seizure score), group mean: 1.5
[1]; 0.02 mg/kg IP, N = 8
  % Seizure, group: 50.0%
  % Seizure: 0 (4×) and 1 (4×)
  F. Clonus: 0 (7×) and 1
  Lat H. Movement: 0 (5×) and 1 (3×)
  Straub T.: 0 (7×) and 1
  Stun: 0 (5×) and 1 (3×)
  Total (seizure score): 0 (4×) and 2 (2×) and 1 and 3
  Total (seizure score), group mean: 1.0
[1]; 0.2 mg/kg IP, N = 8
  % Seizure, group: 50.0%
  % Seizure: 0 (4×) and 1 (4×)
  F. Clonus: 0 (6×) and 1 (2×)
  Lat H. Movement: 0 (7×) and 1
  Straub T.: 0 (5×) and 1 (3×)
  Stun: 0 (4×) and 1 (4×)
  Total (seizure score): 0 (4×) and 3 (2×) and 2 (2×)
  Total (seizure score), group mean: 1.3
[1]; 2 mg/kg IP, N = 11
  % Seizure, group: 54.5%
  % Seizure: 1 (6×) and 0 (5×)
  F. Clonus: 1 (5×) and 0 (6×)
  Lat H. Movement: 0 (8×) and 1 (3×)
  Straub T.: 0 (10×) and 1
  Stun: 0 (8×) and 1 (3×)
  Total (seizure score): 1 (2×) and 0 (5×) and 2 (3×) and 4
  Total (seizure score), group mean: 1.0
[1]; 4 mg/kg IP
  seizure incidence in the 6 HZ seizure test: Decreased seizure incidence
[1]; 4 mg/kg IP, N = 9
  % Seizure, group: 33.3%
  % Seizure: 0 (6×) and 1 (3×)
  F. Clonus: 0
  Lat H. Movement: 0
  Straub T.: 0 (8×) and 1
  Stun: 0 (6×) and 1 (3×)
  Total (seizure score): 0 (6×) and 1 (2×) and 2
  Total (seizure score), group mean: 0.4
[1]; 0.02, 2, and 4 mg/kg doses IP, p<0.05
  seizure scores (mean±SEM) vs vehicle, post-hoc analysis: reduction in seizure scores
[1]; 0.002 to 4 mg/kg doses, 95% confidence limits 1.36-11.82 mg/kg, read-out: ED50, decrease in percentage incidence of seizures
  ED50: 4.01 mg/kg
[1]; 95% CI (0.01-1.05), read-out: ED50, decrease in the seizure score
  ED50: 0.1 mg/kg
Male CD-1 mice; 0.002 mg/kg IP, N = 8
  Neurological Score: 0
  Neurological Score, group mean: 0.0
Male CD-1 mice; 0.02 mg/kg IP, N = 8
  Neurological Score: 0
  Neurological Score, group mean: 0.0
Male CD-1 mice; 0.2 mg/kg IP, N = 8
  Neurological Score: 0
  Neurological Score, group mean: 0.0
Male CD-1 mice; 0.002-4 mg/kg IP
  effect on behaviour as measured by neurological scoring: no measurable effect on behaviour
Male CD-1 mice; 2 mg/kg IP, N = 11
  Neurological Score: 0
  Neurological Score, group mean: 0.0
Male CD-1 mice; 4 mg/kg IP, N = 9
  Neurological Score: 0
  Neurological Score, group mean: 0.0
